The source of these data is publication PMC6261607, “Novel high–throughput myofibroblast assays identify agonists with therapeutic potential in pulmonary fibrosis that act via EP2 and EP4 receptors” (PLoS ONE, 2018).

For series [1], the system named is α–SMA protein in TGF–β1–induced NHLF myofibroblasts. Nature of the series: MS/MS α–SMA, NHLF myofibroblast reversal assay. It counts as cell-based, human. Particulars: Homo sapiens. The method, then: Cell culture medium was removed and cells were lysed on ice by adding 5 μl / well of pre–cooled protein extraction buffer containing 10 mM Tris–HCl (pH 8.0), 6 M urea and 2 M thiourea and shaking on ice on a plate shaker at 600 rpm for 30 min.
Cell lysate was transferred to a 96–well polypropylene–PCR–plate. 15 μl / well denaturation buffer (6 M urea, 50 mM ammonium bicarbonate) and 2 μl / well of 50 mM TCEP were added and samples were denatured for 1 h at 60°C using the Veriti 96–well Fast Thermal Cycler System (Applied Biosystem) with a heated lid. Plates were allowed to cool to RT. Subsequently, 2 μl of 100 mM iodoacetamide were added per well to derivatize cysteine residues. Plates were then sealed and vortexed for 2 min in the dark and incubated for 30 min at 37°C in a thermal cycler with a heated lid. 90 μl of 50 mM ammonium bicarbonate pH 7.8 were added, followed by the addition of 10 μl of trypsin at 0.02 μg / ml. Samples were trypsin–digested overnight at 37°C in a thermal cycler with heated lid. […] Samples were desalted under vacuum using an Oasis HLB 96–well (30 μm particle size, 5 mg sorbent / well) reverse phase cartridge according to the manufacturer’s instructions and eluted with 170 μl of 90% acetonitrile, 0.1% formic acid. Samples were dried down with a flow of nitrogen at 40°C, left to cool to RT and re–suspended in 40 μl 5% acetonitrile, 0.1% formic acid on a plate shaker set to 1400 rpm for 5 min. Plates were centrifuged at 4,000 rpm for 10 min and 2 times 12 μl / well of supernatant were transferred into separate 96–well plates (Greiner Bio–One), sealed and stored at 4°C until analyzed by MS / MS.
Surrogate tryptic peptides were chosen for detection of COL1 (COL1A1), α–SMA (ACTA) and tubulin (TBA1A1) and crude synthetic peptides were purchased from Thermo Fischer. After several rounds of optimization following standard workflows, […] (COL1 / COL1A1), […] (α–SMA / ACTA) and […] LC–MS / MS analysis was performed on a RapidFire™ RF360 system (Agilent Technologies) coupled to an API 5500 (ABSciex) with positive ion electrospray ionization. […] Detection was performed using multiple reaction monitoring (MRM) mode to monitor parent⟶product ion transitions (m / z). […] The source parameters were curtain gas (CUR) nitrogen: 20 psig; collision gas (CAD): 7 psig; ion source gas 1: 50.0 psig; ion source gas 2: 50.0 psig; ion spray voltage (IS): 5500 V; turbo heater temperature (TEM): 600°C; entrance potential (EP): 10V. Peak areas for COL1A1 and ACTA were normalized by dividing by TBA1A peak area.
(§1) To identify compounds with potential to revert differentiated myofibroblasts to fibroblasts the assay procedures were modified. After 24 h starvation, NHLF cells were stimulated with 5 ng / ml TGF–β1 for 24 h. At t = 24 h TGF–β1 was removed and either vehicle (DMSO) or compounds were added and incubated with the cells for a further 72 h.

Series [2] relates to TGF–β1–induced NHLF myofibroblasts. Nature of the series: cells. It counts as cell-based. The method, then: (§2) To measure dynamic cell shape and adhesion changes during fibrotic transdifferentiation, NHLF were seeded at a density of 20,000 cells per well in FGM–2 growth medium (Lonza) containing 100 units / ml of penicillin and 100 μg / ml of streptomycin into E–plates with continued impedance signal measurement (xCELLigence system, Roche Applied Science). After overnight growth, the medium was exchanged for FBM (Lonza) supplemented with 100 units / ml of penicillin and 100 μg / ml of streptomycin and 0.1% faf BSA and cells were starved for 32 h. Compound dilution series were added and myofibroblast transition was induced by adding TGF–β1 at a concentration of 5 ng / ml, followed by continued impedance sampling for up to 48 h. For data analysis, impedance raw traces were normalized to the time point of compound addition and the baseline response (DMSO, non–TGF–β1 treated cells) was subtracted. In some cases, impedance values at defined time points were used to generate concentration–response curves to determine compound potency and efficacy using GraphPad Prism software version 7 (GraphPad Software Inc).
as §1

Series [3] relates to normal human lung fibroblasts (NHLF). In words: Impedance measurement of TGF–β1–induced myofibroblast transition (IPQA), standard assay. It counts as cell-based. The procedure: as §2
Series [4] has the same test system. In words: Phenotypic high-content assay (HCA) of TGF–β1–induced fibroblast–to–myofibroblast differentiation. It counts as cell-based. The conditions noted are these: for IC50: 5 ng/ml TGF–β1 for 48 h, compound added with TGF–β1, mean ± SD, read-out: HCA IC50; for inhibition at 10 µM: read-out: Effect HCA at 10 µM [% inhibition], 10 µM compound, 5 ng/ml TGF–β1, 48 h. An outline of the steps: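 NHLF starved 24 h in serum-free basal medium with 0.1% BSA, then given compounds together with 5 ng/ml TGF-β1 for 48 h (0.6% DMSO). Methanol-fixed cells imaged for DAPI, α-SMA and FN; an SVM trained on ±TGF-β1 controls classified each cell, giving per-well % myofibroblast differentiation and nuclear counts.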

The mark [5] stands for this setting: reversal assay: 24 h 5 ng/ml TGF–β1, washed, 72 h compound, normalized to tubulin, read-out: MS / MS α–SMA IC50.
[6] abbreviates: reversal assay: 24 h 5 ng/ml TGF–β1, washed, then compound, impedance data at t = 20 h.
The mark [7] stands for this setting: Fibroblast, 5 ng/ml TGF–β1, compound added with TGF–β1, impedance at t = 20 h post TGF–β1, mean ± SD, read-out: Impedance IC50.
Setting [8] is: Homo sapiens, Fibroblast, 5 ng/ml TGF–β1, t = 20 h, representative experiment of supplementary figure, read-out: IC50 on impedance (curve of a single experiment).
Setting [9] is: Homo sapiens, Fibroblast, 48 h, NHLF.
The mark [10] stands for this setting: NHLF pre–stimulated 24 h with 5 ng/ml TGF–β1, representative experiment, S7 Fig D, read-out: IC50, reversal of α–SMA (curve of a single experiment).

Like-named read-outs stand apart in the source and are kept apart here.

In general, inhibition refers to the change of the read-out against control, counted positive when it falls. `C[C@]12CC[C@H](O)C[C@H]1CC[C@@H]1[C@@H]2C[C@@H](O)[C@]2(C)[C@@H](C3=CC(=O)OC3)CC[C@]12O` [Digoxigenin]: the IC50 came out at 48 nM in series [1] (setting [5]); 140 nM in series [2] (setting [6]); 250 ± 140 nM in series [3] (setting [7]); 154 nM in series [3] (setting [8]); 220 nM in series [4] (setting [9]). For the same compound, in series [4] (HCA, NHLF), the “concentrations that reduced cell surface area (CellMask Orange stain)” value is on record as not below 1250 nM. The inhibition at 10 µM in series [4] (Homo sapiens, Fibroblast) is 100%.

Regarding `CCCCC[C@H](O)/C=C/[C@H]1[C@H](O)CC(=O)[C@@H]1CCCCCCC(=O)O` [Alprostadil], the IC50 in series [1] (setting [5]) worked out at 1 nM; in series [2] (setting [6]) it was 0.9 ± 0.2 nM; in series [3] (setting [7]), 0.6 ± 0.1 nM; in series [4] (setting [9]), 9 nM; in series [4] (NHLF) it was 8.6 ± 10 nM. Also, the inhibition at 10 µM in series [4] (Homo sapiens, Fibroblast) was determined as 97%.

For `CCCCC[C@H](O)/C=C/[C@H]1[C@H](O)CC(=O)[C@@H]1C/C=C\CCCC(=O)O` [PGE2, prostaglandin E2], the IC50 in series [1] (setting [10]) amounted to 0.82 nM; in series [1] (setting [5]) it was 0.8 nM; in series [2] (setting [6]) it was 0.7 nM; in series [3] (setting [7]), 0.5 ± 0.1 nM; in series [3] (setting [8]), 0.4 nM.

Consider `Cc1cccc(-c2[nH]c(CNc3ccccc3F)nc2-c2ccc3ncnn3c2)n1` [EW–7197], for which the IC50 in series [1] (setting [10]) was 51 nM; in series [1] (setting [5]), 73 ± 31 nM; in series [2] (Homo sapiens, reversal assay, impedance at t = 72 h post TGF–β1, n = 2), 47 ± 1 nM; in series [2] (setting [6]), more than 10000 nM; in series [3] (setting [7]) it was 47 ± 25 nM; in series [4] (setting [9]), 80 ± 30 nM. Moreover, the IC50 in series [4] (NHLF) stood at 82 ± 30 nM.

With `COC(=O)c1ccc2c(c1)NC(=O)/C2=C(\Nc1ccc(N(C)C(=O)CN2CCN(C)CC2)cc1)c1ccccc1` [Nintedanib], the IC50 in series [1] (setting [5]) was more than 10000 nM; in series [2] (setting [6]) it was more than 10000 nM; in series [3] (setting [7]), 300 ± 110 nM; in series [4] (setting [9]) it was 760 ± 130 nM.

For the compound “TGF–β1: transforming growth factor–β1, stimulus of myofibroblast differentiation”, in series [3] (impedance at t = 20 h, mean ± SD, n = 8), the “EC50 of impedance change” value came out at 0.03 ± 0.01 ng/mL. The “EC50 of myofibroblast differentiation in HCA” value in series [4] (NHLF, 48 h, mean ± SD (n = 7)) was 0.02 ± 0.01 ng/mL.

Turning to `O=C1CC[C@H](/C=C/[C@@H](O)Cc2ccccc2)N1CCCCCCc1nn[nH]n1` [Merck–19a], the IC50 in series [3] (5 ng/ml TGF–β1, compound added with TGF–β1, impedance at t = 20 h post TGF–β1, mean ± SD, read-out: Impedance IC50) stood at 10.4 ± 1.1 nM.

As for `O=C(CC1NCCCC1O)Cn1cnc2cc(Br)c(Cl)cc2c1=O` (centres unmarked) [Halofuginone], the IC50 in series [1] (setting [10]) was 40 nM; in series [1] (setting [5]) it was 102 ± 87 nM; in series [2] (setting [6]), more than 1000 nM; in series [3] (setting [7]), 96 ± 10 nM; in series [3] (setting [8]) it was 26 nM; in series [4] (setting [9]), 690 ± 320 nM. Also, in series [2] (human, 72 h), the cytotoxic concentration was ≥ 10’000 nM.

As to `CC(C)(C)c1ccc(CN(Cc2cccc(OCC(=O)O)c2)S(=O)(=O)c2cccnc2)cc1` [Evatanepag], the IC50 in series [1] (setting [5]) amounted to 16 nM; in series [2] (setting [6]) it was 14 nM; in series [3] (setting [7]) it was 6.7 ± 3 nM; in series [3] (setting [8]), 5 nM; in series [4] (setting [9]), 82 ± 110 nM.
